Measurements published in patent US20050208549A1, “Testing endosymbiont cellular organelles and compounds identifiable therewith” (priority 2000, published 2005).

Key:
Fibroblast cells [1] = assay: NASBA ratio of mitochondrial RNA to mitochondrial DNA in cultured fibroblast cells; assay type: cell-based; conditions: culture period of four weeks, antiviral drugs at 3 μM and 30 μM
Method: (§1) In Table 1, the primers and probes used in the examples are summarized. Standard NASBA nucleic acid amplification reactions were performed in a 20 μl reaction volume and contained: 40 mM Tris-pH 8.5, 70 mM KCl, 12 mM MgCl2, 5 mM dithiothreitol, 1 mM dNTPs (each), 2 mM rNTPs (each), 0.2 μM primer (each), 0.05 μM molecular beacon, 375 mM sorbitol, 0.105 μg/μl bovine serum albumin, 6.4 units AMV RT, 32 units T7 RNA polymerase, 0.08 units RNAse H and input nucleic acid. The complete mixture, except the enzymes, sorbitol and/or bovine serum albumin was, prior to adding the enzyme mixture, heated to 65° C. for two minutes in order to denature any secondary structure in the RNA and to allow the primers to anneal. After cooling the mixture to 41° C., the enzymes were added. The amplification took place at 41° C. for 90 minutes in a fluorimeter (CytoFluor 2000) and the fluorescent signal was measured every minute (using the filter set 530/25 nm and 485/30 nm). […]
(§2) To achieve quantification, a dilution series of target sequences for a particular primer set was amplified and the time points at which the reactions became positive (the time to positivity, TTP) were plotted against the input amounts of nucleic acid. This way a calibration curve was created that could be used to read TTP values of reactions with unknown amounts of input and deduce the input amount. […]

Fibroblast cells [2] = assay: NASBA ratio of mitochondrial DNA to chromosomal DNA in cultured fibroblast cells; assay type: cell-based; conditions: culture period of four weeks, antiviral drugs at 3 μM and 30 μM
Method: as §1, §2

[3] = cited from earlier work
Fibroblasts = assay: Lactate-pyruvate ratio in fibroblasts cultured with ddC; assay type: cell-based
Method: Fibroblasts were cultured in the presence of the anti-retroviral drug ddC. (30 μM) for four weeks. After that period, the cell culture continued in the presence, but also in the absence, of ddC for another six weeks. During this period of culture, part of the cells were harvested and analyzed for the ratio of lactate-pyruvate using standard methods known by persons skilled in the art.

SMILES | change in mitochondrial RNA to mitochondrial DNA ratio (Fibroblast cells [1]) | change in mitochondrial DNA to chromosomal DNA ratio (Fibroblast cells [2]) | Rate (%) of mitochondrial toxicity, affected organ Heart ([3]; Dilated cardio-myopathy) | Rate (%) of mitochondrial toxicity, affected organ Muscle ([3]; Fatigue, myalgia, proximal weakness, wasting, Creatine kinase ↑) | culture time after which a significant increase of lactate pyruvate ratio can be observed (Fibroblasts; ddC 30 μM) | lactate-pyruvate ratio in continued culture in the absence of ddC (Fibroblasts; ddC 30 μM for four weeks, then without ddC) | lactate pyruvate ratio in the presence of ddC (Fibroblasts; ddC 30 μM, FIG. 17) | lactate-pyruvate ratio during continued culture in the presence of ddC (Fibroblasts; ddC 30 μM, after week four, another six weeks)
Cc1cn([C@H]2C[C@H](N=[N+]=[N-])[C@@H](CO)O2)c(=O)[nH]c1=O [AZT] | no measurable change | no measurable change | Rare | 17% |  |  |  | 
Nc1ccn([C@H]2CC[C@@H](CO)O2)c(=O)n1 [ddC] |  |  |  |  | four | drops to normal levels | increases | remains high
